From paper PMC2655291 (BMC Structural Biology, 2009) come the findings set out here.

pIC50: −log10 of the molar value. Where two headings read alike, the source gives them in different places.

Test [1] deals with T1, quinone reductase 2 (NQO2) (Homo sapiens, UniProt P16083).
T1 sequence (P16083 1-231): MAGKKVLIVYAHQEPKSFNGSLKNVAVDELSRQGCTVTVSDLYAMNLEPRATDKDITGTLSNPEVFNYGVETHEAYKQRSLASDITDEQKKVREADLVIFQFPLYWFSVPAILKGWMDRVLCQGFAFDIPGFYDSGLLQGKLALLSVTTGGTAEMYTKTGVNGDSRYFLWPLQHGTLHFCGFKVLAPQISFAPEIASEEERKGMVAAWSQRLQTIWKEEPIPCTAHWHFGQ

In test [2] the target is T1, quinone reductase 2 (NQO2). The source holds these as a separate data set.
Another test addresses NQO2 S16D mutant (human). Briefly: SEC; analytical gel filtration of the purified mutant (data not shown); monomer and dimer.

The pIC50 is the IC50 on a negative log10 scale, so that one unit is a factor of ten. High values mean a low IC50, low ones a high IC50. Compound `Cc1cn(-c2cc(NC(=O)c3ccc(C)c(Nc4nccc(-c5cccnc5)n4)c3)cc(C(F)(F)F)c2)cn1` [nilotinib] showed a pIC50 in test [1] of 6.42.
In the case of `O=c1c(O)c(-c2ccc(O)c(O)c2)oc2cc(O)cc(O)c12` [quercetin], in test [2], the pIC50 was 7.38.
What is called stoichiometry N is the number of molecules, sites or subunits per partner or assembly. NQO2 S16D mutant (enzyme) gave a stoichiometry N in the test with NQO2 S16D mutant (human) of 2.
